The subject of the assay is Male Wistar rats. The assay is described as follows: Inhibition of hind leg scratching behaviour induced in rats by a pruritogenic agent (5-methoxytryptamine hydrochloride). The format is in vivo, rat. To be noted: test compound by subcutaneous injection in aqueous micelle formulation; pruritogen 5-methoxytryptamine hydrochloride 4 mg/3 mL/kg s.c.; hindleg scratching score totalled after 25 minutes vs control group. Here is the method: The compounds of the invention are evaluated for their activity as antipruritic agents by measuring their ability to inhibit the hind leg scratching behaviour induced in rats by the administration of a known pruritogenic agent. These studies are based on the procedure described by Berendsen and Broekkamp in the European Journal of Pharmacology, 1991, 194, 201. The test is performed as follows:
Male Wistar rats (approximately 150 g body weight) are challenged with a pruritogen by subcutaneous injection of 5-methoxytryptamine hydrochloride (4 mg/3 mL/kg) dissolved in physiological saline into the scruff of the neck. At this dose a constant and quantifiable hindleg scratching response lasting up to 90 minutes is obtained.
The test compound is administered to the test animals by subcutaneous injection in an aqueous micelle formulation. The test compound is prepared in the following manner. The compound is dissolved in a vehicle (composition v/v %: glycerol formal, 24; tween 80, 17; benzyl alcohol, 1.5 and purified water to 100) then seven parts purified water is added to three parts of the above vehicle to give the aqueous micelle formulation. […]
After the pruritogen challenge has been administered, hindleg scratching is scored for each animal by recording the presence or absence of scratching during each 30 second interval as 1 or 0 scored respectively. […]

The values below come from US6479516B1, “4-arylpiperidine derivatives for the treatment of pruritus” (Pfizer Inc, priority 1999, dated 2002).

Regarding `CCCCCCN1CC[C@@](C)(c2ccc(NC(C)=O)c(O)c2)[C@H](C)C1` (racemic) [Example 8, (±)-N-Hexyl-trans-3,4-dimethyl-4-(4-acetylamino-3-hydroxyphenyl)piperidine], the anti-pruritic activity result was “display anti-pruritic activity”.
